We go through 12 molecules from patent US20050282743A1, “Molecular interactions in cells” (Arbor Vita Corporation, priority 2001, published 2005).

Common to all, as to experiment: G' assay (10 uM PL peptide), results of TABLE 7 and TABLE 12
Format in all cases: binding

Experiment [1] deals with T1, PDZ protein (GST-PDZ fusion) (Homo sapiens, UniProt Q12923).
T1 construct: made in house; host or cells: E. coli (DH5alpha, BL21 or JM109)
In short, it runs like this: (§1)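 Binding classes derive from A450 nm of bound biotin-tagged PL peptide. A score of 5 needs A450 above 4 in more than two repeats.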

The target of experiment [2] is T2, PDZ protein (GST-PDZ fusion) (Homo sapiens, UniProt Q6P0Q8).
T2 construct: made in house; host or cells: E. coli (DH5alpha, BL21 or JM109)
T2 sequence (Q6P0Q8 whole entry, the tested form may be a part): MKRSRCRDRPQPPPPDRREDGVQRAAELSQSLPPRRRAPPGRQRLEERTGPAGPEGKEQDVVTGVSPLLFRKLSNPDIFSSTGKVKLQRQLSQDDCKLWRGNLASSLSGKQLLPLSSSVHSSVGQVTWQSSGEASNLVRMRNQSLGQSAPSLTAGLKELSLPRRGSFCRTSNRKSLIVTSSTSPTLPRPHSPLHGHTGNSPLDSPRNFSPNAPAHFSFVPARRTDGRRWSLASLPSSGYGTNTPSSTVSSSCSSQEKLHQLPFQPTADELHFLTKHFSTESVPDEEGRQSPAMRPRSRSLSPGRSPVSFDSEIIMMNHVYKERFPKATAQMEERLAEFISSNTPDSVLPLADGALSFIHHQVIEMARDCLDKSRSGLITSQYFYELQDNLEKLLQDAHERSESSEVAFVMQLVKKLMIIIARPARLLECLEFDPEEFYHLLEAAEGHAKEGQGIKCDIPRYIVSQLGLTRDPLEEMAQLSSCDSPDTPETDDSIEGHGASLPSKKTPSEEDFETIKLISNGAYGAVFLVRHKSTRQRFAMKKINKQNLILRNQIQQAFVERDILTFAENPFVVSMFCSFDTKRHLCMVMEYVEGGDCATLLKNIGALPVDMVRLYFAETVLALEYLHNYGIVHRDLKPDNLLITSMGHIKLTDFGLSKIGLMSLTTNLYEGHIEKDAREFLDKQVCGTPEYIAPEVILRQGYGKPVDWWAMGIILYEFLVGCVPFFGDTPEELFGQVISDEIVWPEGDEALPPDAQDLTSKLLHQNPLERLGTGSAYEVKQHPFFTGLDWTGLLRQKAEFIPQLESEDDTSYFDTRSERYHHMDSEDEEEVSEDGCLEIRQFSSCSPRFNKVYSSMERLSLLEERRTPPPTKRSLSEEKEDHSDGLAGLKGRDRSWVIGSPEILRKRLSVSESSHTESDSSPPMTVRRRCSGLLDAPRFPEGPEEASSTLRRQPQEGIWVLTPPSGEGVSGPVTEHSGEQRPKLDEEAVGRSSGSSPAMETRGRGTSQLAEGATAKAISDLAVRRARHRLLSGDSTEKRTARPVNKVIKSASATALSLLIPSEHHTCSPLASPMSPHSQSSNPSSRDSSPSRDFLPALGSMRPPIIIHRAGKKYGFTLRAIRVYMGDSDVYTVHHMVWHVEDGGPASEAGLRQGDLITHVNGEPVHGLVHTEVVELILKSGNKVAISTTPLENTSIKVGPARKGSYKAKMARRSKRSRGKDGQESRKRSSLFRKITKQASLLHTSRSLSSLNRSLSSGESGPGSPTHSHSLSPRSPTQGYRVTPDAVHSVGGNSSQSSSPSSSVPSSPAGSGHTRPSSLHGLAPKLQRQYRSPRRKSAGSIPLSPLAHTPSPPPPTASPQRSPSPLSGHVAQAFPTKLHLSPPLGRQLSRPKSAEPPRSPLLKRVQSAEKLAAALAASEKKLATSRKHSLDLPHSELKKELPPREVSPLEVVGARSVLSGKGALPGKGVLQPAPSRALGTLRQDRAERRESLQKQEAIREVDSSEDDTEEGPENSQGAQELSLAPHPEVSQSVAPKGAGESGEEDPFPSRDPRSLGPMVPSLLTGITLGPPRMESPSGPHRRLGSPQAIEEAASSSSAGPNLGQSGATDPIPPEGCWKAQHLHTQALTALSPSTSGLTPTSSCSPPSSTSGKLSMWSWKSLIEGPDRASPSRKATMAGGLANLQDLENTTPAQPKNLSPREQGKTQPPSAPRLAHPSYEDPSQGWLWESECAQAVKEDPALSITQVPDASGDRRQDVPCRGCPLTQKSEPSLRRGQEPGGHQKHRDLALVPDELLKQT
In short, it runs like this: as §1

Experiment [3] concerns the target T3, PDZ protein (GST-PDZ fusion) (Homo sapiens, UniProt Q96JH8).
T3 construct: made in house; host or cells: E. coli (DH5alpha, BL21 or JM109)
T3 sequence (Q96JH8 1-1075): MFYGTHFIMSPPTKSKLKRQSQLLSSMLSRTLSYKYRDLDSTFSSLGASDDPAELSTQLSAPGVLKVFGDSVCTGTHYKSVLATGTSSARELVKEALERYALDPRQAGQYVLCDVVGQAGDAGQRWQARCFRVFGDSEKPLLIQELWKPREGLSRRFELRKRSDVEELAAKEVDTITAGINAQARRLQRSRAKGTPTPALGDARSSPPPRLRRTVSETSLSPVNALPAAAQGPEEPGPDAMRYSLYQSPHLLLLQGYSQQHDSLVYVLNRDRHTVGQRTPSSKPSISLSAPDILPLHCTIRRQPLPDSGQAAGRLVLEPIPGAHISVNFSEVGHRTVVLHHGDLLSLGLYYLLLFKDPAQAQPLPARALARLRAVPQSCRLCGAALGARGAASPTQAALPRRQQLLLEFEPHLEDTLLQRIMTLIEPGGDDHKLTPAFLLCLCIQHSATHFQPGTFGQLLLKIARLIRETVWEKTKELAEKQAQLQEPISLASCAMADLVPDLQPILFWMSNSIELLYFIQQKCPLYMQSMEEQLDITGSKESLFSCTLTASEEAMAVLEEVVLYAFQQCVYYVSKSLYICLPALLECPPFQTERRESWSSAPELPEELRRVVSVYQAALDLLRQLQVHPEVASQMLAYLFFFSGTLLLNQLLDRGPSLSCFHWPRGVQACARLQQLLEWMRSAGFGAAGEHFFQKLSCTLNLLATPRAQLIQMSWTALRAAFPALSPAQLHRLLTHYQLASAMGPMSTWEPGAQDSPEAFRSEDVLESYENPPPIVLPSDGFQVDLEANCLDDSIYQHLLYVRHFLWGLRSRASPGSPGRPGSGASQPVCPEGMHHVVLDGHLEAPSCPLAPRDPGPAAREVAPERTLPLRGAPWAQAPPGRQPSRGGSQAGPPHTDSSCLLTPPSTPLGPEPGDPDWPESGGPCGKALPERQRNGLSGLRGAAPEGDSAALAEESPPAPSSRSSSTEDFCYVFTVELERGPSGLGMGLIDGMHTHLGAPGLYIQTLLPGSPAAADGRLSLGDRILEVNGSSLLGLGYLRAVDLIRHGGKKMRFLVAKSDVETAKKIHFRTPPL
Conditions: PDZ FLJ 10324, PDZ Domain 1. Summed up: as §1

Experiment [4] deals with PDZ protein (GST-PDZ fusion). In short, it runs like this: as §1
Where [5] appears, read: PDZ HEMBA 1003117, PDZ Domain 1.
[6] abbreviates: PDZ KIAA807, PDZ Domain not given.

Ends that are not written are not given here. Peptide text beside a SMILES is read from it. * marks the point of attachment. Biotin = O=C1N[C@H]2[C@H](CS[C@H]2CCCCC(=O)*)N1

T1 sequence (Q12923 whole entry, the tested form may be a part): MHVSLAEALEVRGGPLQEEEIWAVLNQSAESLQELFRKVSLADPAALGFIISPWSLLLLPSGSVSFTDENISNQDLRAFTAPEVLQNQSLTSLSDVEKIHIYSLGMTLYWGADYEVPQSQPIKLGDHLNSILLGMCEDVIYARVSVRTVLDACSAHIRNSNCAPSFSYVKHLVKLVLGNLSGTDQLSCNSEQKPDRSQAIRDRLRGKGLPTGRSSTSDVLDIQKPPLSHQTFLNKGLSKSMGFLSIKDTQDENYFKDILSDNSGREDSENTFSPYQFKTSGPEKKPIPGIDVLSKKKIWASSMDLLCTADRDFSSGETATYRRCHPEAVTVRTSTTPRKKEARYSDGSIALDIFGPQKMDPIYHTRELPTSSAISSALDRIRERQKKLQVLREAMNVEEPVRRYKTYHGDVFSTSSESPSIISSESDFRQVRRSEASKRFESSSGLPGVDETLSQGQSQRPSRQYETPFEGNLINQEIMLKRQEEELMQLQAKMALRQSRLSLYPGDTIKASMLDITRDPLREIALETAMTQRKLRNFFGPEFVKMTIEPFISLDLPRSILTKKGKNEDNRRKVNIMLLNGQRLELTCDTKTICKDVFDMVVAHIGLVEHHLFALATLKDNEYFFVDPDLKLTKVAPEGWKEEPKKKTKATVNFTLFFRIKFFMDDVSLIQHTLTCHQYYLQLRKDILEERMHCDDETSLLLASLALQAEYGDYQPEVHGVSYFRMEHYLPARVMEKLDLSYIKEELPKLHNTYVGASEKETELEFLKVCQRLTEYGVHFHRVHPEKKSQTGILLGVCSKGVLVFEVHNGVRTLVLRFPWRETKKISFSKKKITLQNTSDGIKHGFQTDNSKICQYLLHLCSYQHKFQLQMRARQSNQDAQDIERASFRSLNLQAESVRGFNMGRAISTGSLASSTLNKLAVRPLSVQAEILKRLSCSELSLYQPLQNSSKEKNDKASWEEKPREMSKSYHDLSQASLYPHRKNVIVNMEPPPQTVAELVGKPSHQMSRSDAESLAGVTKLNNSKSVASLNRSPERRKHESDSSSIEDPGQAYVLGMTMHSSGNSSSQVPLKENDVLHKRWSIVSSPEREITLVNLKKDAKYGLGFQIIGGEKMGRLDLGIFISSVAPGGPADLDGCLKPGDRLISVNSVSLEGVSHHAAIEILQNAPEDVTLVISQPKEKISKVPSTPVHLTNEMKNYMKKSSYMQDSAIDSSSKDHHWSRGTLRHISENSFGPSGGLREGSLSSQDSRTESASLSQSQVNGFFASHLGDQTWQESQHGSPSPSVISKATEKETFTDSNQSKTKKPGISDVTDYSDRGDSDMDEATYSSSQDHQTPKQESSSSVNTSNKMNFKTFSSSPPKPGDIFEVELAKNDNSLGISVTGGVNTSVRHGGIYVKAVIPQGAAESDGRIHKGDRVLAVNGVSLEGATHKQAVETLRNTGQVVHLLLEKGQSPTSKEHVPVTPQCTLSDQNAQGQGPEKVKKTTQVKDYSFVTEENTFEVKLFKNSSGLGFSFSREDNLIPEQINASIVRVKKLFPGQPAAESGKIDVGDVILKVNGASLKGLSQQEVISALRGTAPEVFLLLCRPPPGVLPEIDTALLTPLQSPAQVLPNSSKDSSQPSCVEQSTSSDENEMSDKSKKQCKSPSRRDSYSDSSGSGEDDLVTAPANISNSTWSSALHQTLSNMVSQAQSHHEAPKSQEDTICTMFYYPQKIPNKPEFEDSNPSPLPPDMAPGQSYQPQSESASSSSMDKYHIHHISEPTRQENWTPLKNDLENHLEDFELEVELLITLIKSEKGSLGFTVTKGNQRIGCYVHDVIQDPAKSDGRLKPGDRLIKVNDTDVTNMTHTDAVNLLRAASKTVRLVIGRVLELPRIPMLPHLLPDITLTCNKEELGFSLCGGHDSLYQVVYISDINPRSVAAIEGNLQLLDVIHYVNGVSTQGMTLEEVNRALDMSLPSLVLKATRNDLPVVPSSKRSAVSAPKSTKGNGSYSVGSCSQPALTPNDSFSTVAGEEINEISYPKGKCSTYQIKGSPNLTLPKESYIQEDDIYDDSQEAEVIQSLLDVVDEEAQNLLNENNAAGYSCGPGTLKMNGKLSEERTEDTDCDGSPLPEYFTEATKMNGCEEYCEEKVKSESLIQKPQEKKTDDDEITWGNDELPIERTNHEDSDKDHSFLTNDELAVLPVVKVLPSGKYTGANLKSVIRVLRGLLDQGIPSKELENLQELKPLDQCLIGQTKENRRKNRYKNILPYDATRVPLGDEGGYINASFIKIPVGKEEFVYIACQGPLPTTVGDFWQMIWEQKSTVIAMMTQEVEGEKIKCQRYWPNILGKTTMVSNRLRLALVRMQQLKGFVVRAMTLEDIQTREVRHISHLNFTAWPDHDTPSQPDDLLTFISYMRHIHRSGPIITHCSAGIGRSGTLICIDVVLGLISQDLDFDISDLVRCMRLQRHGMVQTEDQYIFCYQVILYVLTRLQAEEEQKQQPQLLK

As for “PYSELNYETSHYPASPDSWV (Biotin-PYSELNYETSHYPASPDSWV) [catenin - delta 2]”, the Classification in experiment [1] (PDZ PTPL-1, PDZ Domain 2) was 5 (A450 nm of 4 more than 2× repeated); in experiment [1] (PDZ PTPL-1, PDZ Domain 4), 1 (A450 nm 0-1); in experiment [2] (PDZ KIAA0807(S), PDZ Domain 1), 3 (A450 nm 2-3); in experiment [2] (PDZ KIAA807 (domain not given)) it was 4 (A450 nm 3-4); in experiment [3], 3 (A450 nm 2-3); in experiment [4] (PDZ BAI-1, PDZ Domain 3) it was 1 (A450 nm 0-1). For the same molecule, in experiment [4] (setting [5]), the Classification is 1 (A450 nm 0-1).
Consider TQGFPGPATWRRISSLESEV, for which the Classification in experiment [1] (PDZ PTPL-1, PDZ Domain 2) is on record as 5 (A450 nm of 4 more than 2× repeated); in experiment [2] (PDZ KIAA0807(S), PDZ Domain 1) it was 5 (A450 nm of 4 more than 2× repeated); in experiment [2] (setting [6]) it was 4 (A450 nm 3-4); in experiment [4] (PDZ BAI-1, PDZ Domain 2), 4 (A450 nm 3-4); in experiment [4] (PDZ BAI-1, PDZ Domain 3) it was 1 (A450 nm 0-1); in experiment [4] (PDZ BAI-1, PDZ Domain 4), 3 (A450 nm 2-3). Also, the Classification was 4 (A450 nm 3-4) in experiment [4] (PDZ BAI-1, PDZ Domain 5); 2 (A450 nm 1-2) in experiment [4] (PDZ BAI-1, PDZ Domain 6); 2 (A450 nm 1-2) in experiment [4] (PDZ FLJ00011 (also printed FLJ 00011), PDZ Domain 1); 1 (A450 nm 0-1) in experiment [4] (PDZ FLJ 11215, PDZ Domain 1).
In the case of “ALVLIAFCIIRRRPSAYQAL (Biotin-ALVLIAFCIIRRRPSAYQAL) [CD68]”, the Classification in experiment [2] (PDZ KIAA0807(S), PDZ Domain 1) is on record as 5 (A450 nm of 4 more than 2× repeated); in experiment [3], 1 (A450 nm 0-1); in experiment [4] (PDZ BAI-1, PDZ Domain 2), 3 (A450 nm 2-3); in experiment [4] (PDZ SHANK, PDZ Domain 1), 1 (A450 nm 0-1).
As to `CC[C@H](C)[C@H](NC(=O)[C@H](CCC(N)=O)NC(=O)CCCC[C@@H]1SC[C@@H]2NC(=O)N[C@@H]21)C(=O)N[C@@H](CO)C(=O)N1CCC[C@H]1C(=O)NCC(=O)NCC(=O)N[C@@H](CC(C)C)C(=O)N[C@@H](CCC(=O)O)C(=O)N1CCC[C@H]1C(=O)N1CCC[C@H]1C(=O)N[C@@H](CO)C(=O)N[C@@H](CCC(=O)O)C(=O)N[C@@H](CCCCN)C(=O)N[C@@H](Cc1c[nH]cn1)C(=O)N[C@@H](Cc1ccccc1)C(=O)N[C@@H](CCCNC(=N)N)C(=O)N[C@@H](CCC(=O)O)C(=O)N[C@H](C(=O)N[C@@H](CCC(=O)O)C(=O)N[C@H](C(=O)O)C(C)C)[C@@H](C)O` [Tax], the Classification is 2 (A450 nm 1-2) in experiment [1] (PDZ PTPL-1, PDZ Domain 2); 1 (A450 nm 0-1) in experiment [3]; 5 (A450 nm of 4 more than 2× repeated) in experiment [4] (PDZ BAI-1, PDZ Domain 2); 1 (A450 nm 0-1) in experiment [4] (PDZ BAI-1, PDZ Domain 3); 2 (A450 nm 1-2) in experiment [4] (PDZ BAI-1, PDZ Domain 4); 5 (A450 nm of 4 more than 2× repeated) in experiment [4] (PDZ BAI-1, PDZ Domain 5). Moreover, the Classification is listed as 1 (A450 nm 0-1) in experiment [4] (PDZ BAI-1, PDZ Domain 6); 1 (A450 nm 0-1) in experiment [4] (PDZ Connector Enhancer, PDZ Domain 1); 1 (A450 nm 0-1) in experiment [4] (PDZ FLJ 00011, PDZ Domain 1); 1 (A450 nm 0-1) in experiment [4] (PDZ FLJ 11215, PDZ Domain 1).
On to `CC(C)C[C@H](NC(=O)[C@H](CC(=O)O)NC(=O)[C@H](CO)NC(=O)[C@H](CCC(=O)O)NC(=O)CNC(=O)[C@H](Cc1ccc(O)cc1)NC(=O)[C@H](CC(C)C)NC(=O)[C@H](C)NC(=O)[C@H](CO)NC(=O)[C@H](CO)NC(=O)[C@H](Cc1ccccc1)NC(=O)[C@H](C)NC(=O)[C@H](C)NC(=O)[C@H](Cc1ccc(O)cc1)NC(=O)[C@H](CC(=O)O)NC(=O)[C@H](CC(C)C)NC(=O)[C@H](C)NC(=O)CNC(=O)[C@@H]1CCCN1C(=O)[C@@H](NC(=O)CCCC[C@@H]1SC[C@@H]2NC(=O)N[C@@H]21)C(C)C)C(=O)O` [a-actinin 2] (Biotin-VPGALDYAAFSSALYGESDL-OH; C-terminus assumed), for which the Classification in experiment [1] (PDZ PTPL-1, PDZ Domain 2) is 1 (A450 nm 0-1); in experiment [2] (PDZ KIAA0807(S), PDZ Domain 1) it was 5 (A450 nm of 4 more than 2× repeated); in experiment [2] (setting [6]) it was 5 (A450 nm of 4 more than 2× repeated); in experiment [4] (PDZ BAI-1, PDZ Domain 2), 1 (A450 nm 0-1); in experiment [4] (PDZ BAI-1, PDZ Domain 6) it was 5 (A450 nm of 4 more than 2× repeated); in experiment [4] (PDZ LIM Protein, PDZ Domain 1), 4 (A450 nm 3-4). The Classification in experiment [4] (PDZ Novel PDZ, PDZ Domain 1) is listed as 2 (A450 nm 1-2); in experiment [4] (PDZ SHANK, PDZ Domain 1), 1 (A450 nm 0-1).
`CC[C@H](C)[C@H](NC(=O)[C@H](C)NC(=O)[C@H](CC(C)C)NC(=O)[C@H](Cc1c[nH]c2ccccc12)NC(=O)[C@H](Cc1c[nH]cn1)NC(=O)[C@H](CCC(N)=O)NC(=O)[C@H](CC(C)C)NC(=O)[C@H](CCC(N)=O)NC(=O)[C@H](Cc1ccccc1)NC(=O)[C@H](CCC(N)=O)NC(=O)[C@H](CCCNC(=N)N)NC(=O)[C@@H](NC(=O)[C@H](CC(=O)O)NC(=O)[C@H](CCCNC(=N)N)NC(=O)[C@H](CCC(N)=O)NC(=O)[C@H](C)NC(=O)[C@@H](NC(=O)[C@H](CC(C)C)NC(=O)[C@H](Cc1c[nH]cn1)NC(=O)[C@H](Cc1c[nH]cn1)NC(=O)CCCC[C@@H]1SC[C@@H]2NC(=O)N[C@@H]21)C(C)C)[C@@H](C)CC)C(=O)O` [noradrenaline transporter] (Biotin-HHLVAQRDIRQFQLQHWLAI-OH; C-terminus assumed): the Classification in experiment [3] is reported as 3 (A450 nm 2-3).
With “GPVPGEPAKPKTSAHHATFV (Biotin-GPVPGEPAKPKTSAHHATFV)”, the Classification is 1 (A450 nm 0-1) in experiment [1] (PDZ PTPL-1, PDZ Domain 4); 1 (A450 nm 0-1) in experiment [3]; 1 (A450 nm 0-1) in experiment [4] (setting [5]).
`CC[C@H](C)[C@H](NC(=O)[C@H](CCC(=O)O)NC(=O)[C@H](CC(N)=O)NC(=O)[C@H](CCCNC(=N)N)NC(=O)[C@H](Cc1ccccc1)NC(=O)[C@H](CC(N)=O)NC(=O)[C@H](CO)NC(=O)[C@H](CC(N)=O)NC(=O)[C@H](CCC(=O)O)NC(=O)[C@H](CO)NC(=O)[C@H](CC(=O)O)NC(=O)[C@H](CO)NC(=O)[C@@H](NC(=O)[C@@H](NC(=O)[C@H](CC(=O)O)NC(=O)[C@H](CCCCN)NC(=O)CCCC[C@@H]1SC[C@@H]2NC(=O)N[C@@H]21)[C@@H](C)CC)[C@@H](C)O)C(=O)N[C@@H](CCC(N)=O)C(=O)N[C@@H](CO)C(=O)N[C@@H](CC(C)C)C(=O)N[C@H](C(=O)O)C(C)C` [CD95] (Biotin-KDITSDSENSNFRNEIQSLV-OH; C-terminus assumed): the Classification is listed as 3 (A450 nm 2-3) in experiment [1] (PDZ PTPL-1, PDZ Domain 2); 1 (A450 nm 0-1) in experiment [1] (PDZ PTPL-1, PDZ Domain 4); 1 (A450 nm 0-1) in experiment [3]; 3 (A450 nm 2-3) in experiment [4] (PDZ BAI-1, PDZ Domain 5).
Consider “SLKPGTVLPPPPYRHRNTVV (Biotin-SLKPGTVLPPPPYRHRNTVV) [ErbB-4 receptor]”, for which the Classification in experiment [1] (PDZ PTPL-1, PDZ Domain 2) was 2 (A450 nm 1-2); in experiment [3] it was 1 (A450 nm 0-1); in experiment [4] (PDZ BAI-1, PDZ Domain 3), 1 (A450 nm 0-1).
For the molecule “VHDAESSDEDGYDWGPATDL (Biotin-VHDAESSDEDGYDWGPATDL) [zona occludens 3 (ZO-3)]”, the Classification is on record as 2 (A450 nm 1-2) in experiment [1] (PDZ PTPL-1, PDZ Domain 2); 5 (A450 nm of 4 more than 2× repeated) in experiment [2] (PDZ KIAA0807(S), PDZ Domain 1); 5 (A450 nm of 4 more than 2× repeated) in experiment [2] (setting [6]); 2 (A450 nm 1-2) in experiment [4] (PDZ BAI-1, PDZ Domain 6); 1 (A450 nm 0-1) in experiment [4] (PDZ Novel PDZ, PDZ Domain 1); 1 (A450 nm 0-1) in experiment [4] (PDZ SHANK, PDZ Domain 1).
On to “LASKSAEEGKQIPDSLSTDL (Biotin-LASKSAEEGKQIPDSLSTDL) [Dock2]”, for which the Classification in experiment [3] is on record as 1 (A450 nm 0-1); in experiment [4] (PDZ BAI-1, PDZ Domain 6) it was 1 (A450 nm 0-1); in experiment [4] (setting [5]) it was 1 (A450 nm 0-1); in experiment [4] (PDZ SHANK, PDZ Domain 1) it was 1 (A450 nm 0-1).
“PPATPSPRLALPAHHNATRL (Biotin-PPATPSPRLALPAHHNATRL) [Na+/Pi cotransporter 2]”: the Classification is 5 (A450 nm of 4 more than 2× repeated) in experiment [2] (PDZ KIAA0807(S), PDZ Domain 1); 5 (A450 nm of 4 more than 2× repeated) in experiment [2] (setting [6]); 1 (A450 nm 0-1) in experiment [3]; 5 (A450 nm of 4 more than 2× repeated) in experiment [4] (PDZ SHANK, PDZ Domain 1).
